Values quoted from earlier work, collected in publication PMC3480357, “Fragment-Hopping-Based Discovery of a Novel Chemical Series of Proto-Oncogene PIM-1 Kinase Inhibitors” (PLoS ONE, 2012).

Biological target: T1, SGK1 (Homo sapiens, UniProt O00141)
T1 sequence (O00141 1-431): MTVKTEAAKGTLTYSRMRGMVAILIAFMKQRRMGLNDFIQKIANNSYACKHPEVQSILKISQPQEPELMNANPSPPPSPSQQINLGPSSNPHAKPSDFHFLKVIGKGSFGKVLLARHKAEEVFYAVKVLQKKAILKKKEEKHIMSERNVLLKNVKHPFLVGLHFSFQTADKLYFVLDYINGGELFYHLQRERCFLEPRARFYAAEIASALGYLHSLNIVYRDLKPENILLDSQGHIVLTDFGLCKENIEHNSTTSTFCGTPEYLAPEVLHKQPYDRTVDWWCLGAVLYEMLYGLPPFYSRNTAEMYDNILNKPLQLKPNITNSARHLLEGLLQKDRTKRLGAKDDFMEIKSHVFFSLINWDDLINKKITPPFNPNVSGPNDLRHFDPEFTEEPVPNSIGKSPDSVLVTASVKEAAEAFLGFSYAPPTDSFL
Parameters: method as in PMID 21051136
Conditions: 10 µM; average of two data points; cited from earlier work

For `Oc1ccc(-c2cnc3ccc(NCc4ccc(F)cc4)nn23)cc1` [Compound 1], which “SGK1 percentage of inhibition” value is on record?
The value was 73%.
